The assay deals with human mGluR5 (Homo sapiens, UniProt P41594). Kind of assay: Cell-based functional Ca2+ mobilization assay (FDSS), potentiation of glutamate EC20 response, HEK293A cells transfected with human mGluR5a (H10H or H12H cell line). The note with it: H10H cell line expressing recombinant human mGluR5, in presence of glutamate EC20, ** = compound is an antagonist; for EC50: read-out: pEC50 (converted); for Emax: HEK293-A; for Emax / Emax (%): % of maximal glutamate response. Here is the method: Human embryonic kidney (HEK) cells transfected with rat mGluR5 were plated in clear bottom assay plates for assay in a Functional Drug Screening System (FDSS). In the alternative assay, HEK cells transfected with human mGluR5 were plated for assay in the FDSS. In some cases the HEK cells transfected with human mGluR5 are the H10H cell line. Alternatively, the HEK cells transfected with human mGluR5 are the H12H cell line. […] The cells were loaded with a Ca^2+-sensitive fluorescent dye (e.g., Fluo-4), and the plates were washed and placed in the FDSS instrument. After establishment of a fluorescence baseline for about three seconds, the compounds of the present invention were added to the cells, and the response in cells was measured. Five minutes later, an mGluR5 agonist (e.g., glutamate, 3,5-dihydroxyphenylglycine, or quisqualate) was added to the cells, and the response of the cells was measured.
The above described assay can be operated in two modes. In the first mode, a range of concentrations of the present compounds were added to cells, followed by a single fixed concentration of agonist. If a compound acted as a potentiator, an EC50 value for potentiation and a maximum extent of potentiation by the compound at this concentration of agonist was determined by non-linear curve fitting. In the second mode, several fixed concentrations of the present compounds were added to various wells on a plate, followed by a range of concentrations of agonist for each concentration of present compound; the EC50 values for the agonist at each concentration of compound were determined by non-linear curve fitting. A decrease in the EC50 value of the agonist with increasing concentrations of the present compounds (a leftward shift of the agonist concentration-response curve) is an indication of the degree of mGluR5 potentiation at a given concentration of the present compound. An increase in the EC50 value of the agonist with increasing concentrations of the present compounds (a rightward shift of the agonist concentration-response curve) is an indication of the degree of mGluR5 antagonism at a given concentration of the present compound. The second mode also indicates whether the present compounds also affect the maximum response to mGluR5 to agonists.
Human mGluR5a cDNA in pCMV6-XL6 mammalian expression plasmid was purchased from OriGene Technologies, Inc. (catalogue number SC326357) and subcloned into pcDNA3.1(−). Human embryonic kidney (HEK)293A cells were then transfected with human mGluR5a pcDNA3.1(−) using LipofectAmine2000 (Invitrogen) and monoclones were selected and tested for functional response using a Ca^2+ mobilization assay. Monoclones were named for the species (“H” for human) plus the location on the plate (e.g. “10H”).
HEK cells transfected with the human mGluR5a receptor (H10H or H12H cell line) were plated at 15,000 cells/well in clear-bottomed poly-D-lysine-coated assay plates (BD Falcon) in glutamate-glutamine-free growth medium and incubated overnight at 37° C. and 5% CO2. Cell-lines used were either the H10H or H12H cell-lines expressing the human mGluR5 receptor. The following day, the growth medium was removed and the cells were washed with assay buffer containing 1× Hank's balanced salt solution (Invitrogen, Carlsbad, Calif.), 20 mM HEPES, 2.5 mM probenecid, pH 7.4 and left with 20 μL of this reagent. Following this step, the cells were loaded with calcium indicator dye, fluo-4 AM, to a final concentration of 2 μM and incubated for 40-45 min at 37° C. The dye solution was removed and replaced with assay buffer. Cell plates were held for 10-15 min at room temperature and were then loaded into the Functional Drug Screening System 6000 (FDSS 6000, Hamamatsu, Japan).
After establishment of a fluorescence baseline for about 3 seconds, the compounds of the present invention were added to the cells, and the response in cells was measured.

The values below come from patent publication US9029366B2, “Substituted bicyclic alkoxy pyrazole analogs as allosteric modulators of mGluR5 receptors” (Vanderbilt University, priority 2012, dated 2015).

A value given as a limit tells only on which side of the number the result lay.

Chain of human mGluR5 (P41594 21-1180 isoform P41594-2 limits assumed): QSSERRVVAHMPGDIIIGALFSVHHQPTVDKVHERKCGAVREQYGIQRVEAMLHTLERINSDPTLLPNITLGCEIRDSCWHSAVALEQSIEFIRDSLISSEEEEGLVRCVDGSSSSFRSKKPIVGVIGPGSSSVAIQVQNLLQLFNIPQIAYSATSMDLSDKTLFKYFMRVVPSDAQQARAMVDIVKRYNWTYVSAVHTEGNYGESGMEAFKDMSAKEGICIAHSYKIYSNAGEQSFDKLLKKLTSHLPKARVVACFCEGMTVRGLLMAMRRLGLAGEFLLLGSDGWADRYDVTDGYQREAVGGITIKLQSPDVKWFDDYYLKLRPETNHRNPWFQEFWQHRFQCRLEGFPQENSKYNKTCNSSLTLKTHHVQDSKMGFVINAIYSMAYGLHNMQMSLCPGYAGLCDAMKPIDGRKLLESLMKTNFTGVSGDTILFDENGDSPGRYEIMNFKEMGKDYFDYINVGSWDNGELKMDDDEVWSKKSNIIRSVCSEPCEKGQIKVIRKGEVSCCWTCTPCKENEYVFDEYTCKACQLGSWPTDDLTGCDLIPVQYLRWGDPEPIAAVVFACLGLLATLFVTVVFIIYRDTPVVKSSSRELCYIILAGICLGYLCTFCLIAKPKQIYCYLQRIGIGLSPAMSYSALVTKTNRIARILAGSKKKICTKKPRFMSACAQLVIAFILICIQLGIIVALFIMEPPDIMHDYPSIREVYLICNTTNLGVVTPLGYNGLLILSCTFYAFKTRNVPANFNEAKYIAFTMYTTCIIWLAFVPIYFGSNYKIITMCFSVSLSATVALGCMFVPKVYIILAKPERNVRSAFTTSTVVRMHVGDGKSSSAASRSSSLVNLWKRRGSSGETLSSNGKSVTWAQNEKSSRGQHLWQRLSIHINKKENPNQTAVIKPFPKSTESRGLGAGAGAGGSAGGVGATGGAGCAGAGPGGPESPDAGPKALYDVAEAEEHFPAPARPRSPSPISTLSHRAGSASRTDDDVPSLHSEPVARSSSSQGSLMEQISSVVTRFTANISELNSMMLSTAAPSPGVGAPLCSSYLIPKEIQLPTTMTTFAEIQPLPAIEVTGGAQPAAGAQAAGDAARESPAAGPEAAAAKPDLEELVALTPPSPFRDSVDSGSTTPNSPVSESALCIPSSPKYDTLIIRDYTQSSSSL

As for `O=C(c1ccc(F)cc1)N1CCn2nc(OCc3ccnc(Cl)c3)cc2C1` [Example B126], the EC50 was 178 nM and the Emax turned out to be 35%.
The corresponding values for `Cc1ccoc1C(=O)N1CCn2nc(OCc3ccccc3)cc2C1` [Example B54] are over 30200 nM and 20%.
On to `O=C(c1ccccc1Cl)N1CCn2nc(OCc3ccccc3)cc2C1` [Example B44], for which the EC50 was 95.5 nM and the Emax came to 33%.
As for `CC(C)(C)CCC(=O)N1CCn2nc(OCc3ccccc3)cc2C1` [Example B26], the EC50 was 589 nM and the Emax stood at 59%.
As for `O=C(c1cccc(Cl)c1)N1CCn2nc(OCc3ccccc3)cc2C1` [Example B43], the EC50 was 70.8 nM and the Emax was found to be 51%.
`O=C(c1cnc[nH]1)N1CCn2nc(OCc3ccccc3)cc2C1` [Example B58]: the EC50 was over 30200 nM and the Emax is 22%.
Turning to `O=C(c1ccc(Cl)cc1)N1CCn2nc(OCc3ccccc3)cc2C1` [Example B40], the EC50 is 269 nM and the Emax was found to be 46%.
The matching figures for `O=C(c1ccc(F)cc1)N1CCn2nc(OCc3ccc4nccn4c3)cc2C1` [Example B118]: over 30200 nM and 25%.
On to `N#Cc1cc(COc2cc3n(n2)CCN(C(=O)c2ccc(F)cc2)C3)ccn1` [Example B127], for which the EC50 was 562 nM and the Emax came out at 36%.
Turning to `O=C(c1cncc(F)c1)N1CCn2nc(OCc3ccccc3)cc2C1` [Example B63], the EC50 is 2000 nM and the Emax is 48%.
Take `O=C(C1CC1c1ccccc1)N1CCn2nc(OCc3ccccc3)cc2C1` (centres unmarked) [Example B71]: the EC50 is 2340 nM and the Emax amounted to 30%.
Take `O=C(c1ccc[nH]1)N1CCn2nc(OCc3ccccc3)cc2C1` [Example B57]: the EC50 was 1230 nM and the Emax was determined as 39%.
As to `Cn1cc(C(=O)N2CCn3nc(OCc4cccc(F)c4)cc3C2)c2ccccc21` [Example B79], the EC50 was 1320 nM and the Emax is 32%.
The matching figures for `O=C(c1ccc(F)cc1)N1CCn2nc(OCc3ccncc3Cl)cc2C1` [Example B136]: at least 10000 nM and 41%.
With `O=C(c1ncc(F)cc1F)N1CCn2nc(OCc3ccccc3)cc2C1` [Example B65], the EC50 was over 10000 nM and the Emax came to 56%.
`Cn1cc(C(=O)N2CCn3nc(OCc4cccc(F)c4)cc3C2)cc1Cl` [Example B93]: the EC50 is 347 nM and the Emax was 65%.
The corresponding values for `Cn1ccc(C(=O)N2CCn3nc(OCc4cccc(F)c4)cc3C2)c1` [Example B92] are 537 nM and 52%.
`COc1ccc(C(=O)N2CCn3nc(OCc4ccccc4)cc3C2)cc1F` [Example B45]: the EC50 was over 30200 nM and the Emax was 19%.
On to `O=C(c1ccc(Cl)c(Cl)c1)N1CCn2nc(OCc3ccccc3)cc2C1` [Example B42], for which the EC50 was 1230 nM and the Emax came to 39%.
Consider `O=C(c1ccccc1C(F)(F)F)N1CCn2nc(OCc3ccccc3)cc2C1` [Example B41], for which the EC50 is over 30200 nM and the Emax amounted to 25%.
With `O=C(c1ccc(F)c(F)c1)N1CCn2nc(OCc3ccccc3)cc2C1` [Example B49], the EC50 was 692 nM and the Emax was 57%.
Consider “1-(2-(benzyloxy)-6,7-dihydropyrazolo[1,5-a]pyrazin-5(4H)-yl)-2-(tert-butylamino)ethanone [Example B24]”, for which the “Emax (%)” value was found to be 28% and the pEC50 is given as under 4.52.
Consider `CCOCC(=O)N1CCn2nc(OCc3ccccc3)cc2C1` [Example B27], for which the EC50 was over 30200 nM and the Emax came to 17%.
With `O=C(COCc1ccccc1)N1CCn2nc(OCc3ccccc3)cc2C1` [Example B72], the EC50 was 3800 nM and the Emax was determined as 34%.
Turning to `O=C(c1ccc(F)c(C(F)(F)F)c1)N1CCn2nc(OCc3ccccc3)cc2C1` [Example B39], the “Emax (%)” value is on record as 51%.
On to `O=C(c1ccc(F)cc1)N1CCn2nc(OCc3ncccn3)cc2C1` [Example B117], for which the EC50 is over 30200 nM and the maximal effect (Emax) was determined as 30%.
In the case of `O=C(c1ccccc1)N1CCn2nc(OCc3ccccc3)cc2C1` [Example B50], the EC50 is 141 nM and the Emax was determined as 55%.
For the molecule `O=C(CCC(F)(F)F)N1CCn2nc(OCc3ccccc3)cc2C1` [Example B70], the EC50 is over 30200 nM and the Emax turned out to be 25%.
Turning to `Cc1ccc(C(=O)N2CCn3nc(OCc4ccccc4)cc3C2)o1` [Example B56], the EC50 is 562 nM and the Emax turned out to be 49%.
Regarding `C[C@@H]1Cn2nc(OCc3ccccc3)cc2CN1C(=O)c1ccc(F)cc1` [Example B7], the EC50 is 813 nM and the Emax is 62%.
For the molecule `Cn1c(Cl)ccc1C(=O)N1CCn2nc(OCc3ccccc3)cc2C1` [Example B81], the EC50 was 25.1 nM and the Emax amounted to 69%.
Turning to `O=C(c1c[nH]c2ccccc12)N1CCn2nc(OCc3ccccc3)cc2C1` [Example B59], the EC50 was 166 nM and the Emax was 71%.
Regarding `C[C@H]1Cn2nc(OCc3ccccc3)cc2CN1C(=O)c1ccc(Cl)n1C` [Example B91], the EC50 is 3630 nM and the Emax came to 69%.
On to `CC(C)(C)OCC(=O)N1CCn2nc(OCc3ccccc3)cc2C1` [Example B21], for which the EC50 was 631 nM and the Emax is 53%.
As to `O=C(c1ccc(F)cc1)N1CCn2nc(OCc3ccnc(C(F)(F)F)c3)cc2C1` [Example B123], the EC50 is at least 10000 nM and the Emax was 30%.
With `CC(C)(C)CC(=O)N1CCn2nc(OCc3ccccc3)cc2C1` [Example B68], the EC50 was 355 nM and the Emax stood at 69%.
Take `O=C(c1ccncc1)N1CCn2nc(OCc3ccccc3)cc2C1` [Example B62]: the EC50 is 1860 nM and the Emax is 20%.
The matching figures for `O=C(c1ccc(F)cc1)N1CCn2nc(OCc3cccc(C(F)F)c3)cc2C1` [Example B124]: 676 nM and 54%.
In the case of `O=C(c1ccc(F)cc1)N1CCn2nc(OCc3ccccc3)cc2C1` [Example B1, 2-(benzyloxy)-5-[(4-fluorophenyl)carbonyl]-4,5,6,7-tetrahydropyrazolo[1,5-a]pyrazine], the EC50 was 166 nM and the Emax came to 68%.
Turning to `O=C(N1CCn2nc(OCc3ccccc3)cc2C1)C12C3C4C5C3C1C5C42` (centres unmarked) [Example B125], the EC50 is 245 nM and the Emax is 73%.
The corresponding values for `O=C(c1ccnc(F)c1)N1CCn2nc(OCc3ccccc3)cc2C1` [Example B138] are 891 nM and 37%.
The matching figures for `O=C(c1ccccn1)N1CCn2nc(OCc3ccccc3)cc2C1` [Example B61]: 4270 nM and 46%.
Consider `O=C(c1ccc(F)cc1)N1CCn2nc(OCc3cc[n+]([O-])cc3)cc2C1` [Example B135], for which the EC50 was at least 10000 nM and the Emax was 38%.
Take `O=C(c1ncccn1)N1CCn2nc(OCc3ccccc3)cc2C1` [Example B51]: the EC50 is over 30200 nM and the Emax worked out at 26%.
Regarding `O=C(c1cc(Cl)cc(Cl)c1)N1CCn2nc(OCc3ccccc3)cc2C1` [Example B47], the EC50 is 110 nM and the maximal effect (Emax) was 25%.
